Results on 9 molecules are retold here after patent US4487776A, “Azolyl-phenoxy-tetrahydrofuran-2-ylidene-methanes, a process for their preparation, and antimicrobial agents which contain these substances” (Bayer Aktiengesellschaft, priority 1982, dated 1984).

≈ marks a conversion by molar mass, not a printed value.

For the first assay, the system named is Microsporum canis. Kind of assay: Antimycotic in vitro activity, series dilution test (MIC). The note with it: 5×10^4 germs/ml, Sabouraud's milieu d'épreuve, 20° C., 96 hours, read-out: MIC values in γ/ml of nutrient medium, Microsporum canis. Format: cell-based. As for the experimental part: (§1) Antimycotic in vitro activity Description of the experiment: The in vitro tests were carried out in a series dilution test with germ inocula of an average of 5×10^4 germs/ml of substrate. The nutrient medium was (a) for dermatophytes and moulds: Sabouraud's milieu d'/e/ preuve and The incubation temperature was 20° C. and the duration of incubation was 24 to 96 hours, in the case of yeasts, and 96 hours in the case of dermatophytes and moulds.
For `CC(C)(C)C(O)C(=Cn1ccnc1)Oc1ccc(F)cc1` (centres unmarked) [(A), reference compound], the MIC stood at 64 µg/mL (≈ 220 µM).

On to `CC(C)(C)C(O)C(=Cn1ccnc1)Oc1ccc(-c2ccccc2)cc1` (centres unmarked) [(B), reference compound], for which the MIC worked out at 32 µg/mL (≈ 91.8 µM).

As for `CC(C)(C)C(O)C(=Cn1ccnc1)Oc1ccc(Cl)cc1Cl` (centres unmarked) [(C), reference compound], the MIC was found to be 32 µg/mL (≈ 93.8 µM).

As to `CC(C)(C)C(O)C(=Cn1cncn1)Oc1ccc(Cl)cc1Cl` (centres unmarked) [(D), reference compound], the MIC was 64 µg/mL (≈ 187 µM).

For `CC1(C)CCOC1=C(Oc1ccc(Cl)cc1)n1ccnc1` [Example 1, (4-chlorophenoxy)-(imidazol-1-yl)-3,3-dimethyltetrahydrofuran-2-ylidene-methane], the MIC is under 1 µg/mL.

As for `CC1(C)CCOC1=C(Oc1ccc(F)cc1)n1ccnc1` [Example 2], the MIC is under 1 µg/mL.

On to `CC1(C)CCOC1=C(Oc1ccc(Cl)cc1Cl)n1ccnc1` [Example 3], for which the MIC was under 1 µg/mL.

Regarding `CC1(C)CCOC1=C(Oc1ccc(-c2ccccc2)cc1)n1ccnc1` [Example 7], the MIC was under 1 µg/mL.

As for `CC1(C)CCOC1=C(Oc1ccc(Cl)cc1)n1cncn1` [Example 11], the MIC came out at 16 µg/mL (≈ 52.3 µM).

A further assay has as its system Torulopsis glabrata. The description is as above. The settings on record: Nakaseomyces glabratus, 5×10^4 germs/ml, meat extract/glucose broth, 20° C., 24 to 96 hours, read-out: MIC values in γ/ml of nutrient medium, Torulopsis glabrata. Format: cell-based. As for the experimental part:
(§2) Antimycotic in vitro activity Description of the experiment: The in vitro tests were carried out in a series dilution test with germ inocula of an average of 5×10^4 germs/ml of substrate. The nutrient medium was (b) for yeasts: meat extract/glucose broth. The incubation temperature was 20° C. and the duration of incubation was 24 to 96 hours, in the case of yeasts, and 96 hours in the case of dermatophytes and moulds.
With `CC(C)(C)C(O)C(=Cn1ccnc1)Oc1ccc(F)cc1` (centres unmarked) [(A), reference compound], the MIC amounted to 64 µg/mL (≈ 220 µM).

Regarding `CC(C)(C)C(O)C(=Cn1ccnc1)Oc1ccc(-c2ccccc2)cc1` (centres unmarked) [(B), reference compound], the MIC is over 64 µg/mL.

Consider `CC(C)(C)C(O)C(=Cn1ccnc1)Oc1ccc(Cl)cc1Cl` (centres unmarked) [(C), reference compound], for which the MIC stood at 16 µg/mL (≈ 46.9 µM).

For the molecule `CC(C)(C)C(O)C(=Cn1cncn1)Oc1ccc(Cl)cc1Cl` (centres unmarked) [(D), reference compound], the MIC came to 32 µg/mL (≈ 93.5 µM).

Take `CC1(C)CCOC1=C(Oc1ccc(Cl)cc1)n1ccnc1` [Example 1, (4-chlorophenoxy)-(imidazol-1-yl)-3,3-dimethyltetrahydrofuran-2-ylidene-methane]: the MIC was found to be 2 µg/mL (≈ 6.56 µM).

For the molecule `CC1(C)CCOC1=C(Oc1ccc(F)cc1)n1ccnc1` [Example 2], the MIC stood at 2 µg/mL (≈ 6.94 µM).

As for `CC1(C)CCOC1=C(Oc1ccc(Cl)cc1Cl)n1ccnc1` [Example 3], the MIC is under 1 µg/mL.

Regarding `CC1(C)CCOC1=C(Oc1ccc(-c2ccccc2)cc1)n1ccnc1` [Example 7], the MIC is under 1 µg/mL.

Consider `CC1(C)CCOC1=C(Oc1ccc(Cl)cc1)n1cncn1` [Example 11], for which the MIC is 16 µg/mL (≈ 52.3 µM).

Another assay has as its system Candida albicans. Described as above. In kind it is cell-based. The settings on record: 5×10^4 germs/ml, meat extract/glucose broth, 20° C., 24 to 96 hours, read-out: MIC values in γ/ml of nutrient medium, Candida albicans. As for the experimental part: as §2
As for `CC(C)(C)C(O)C(=Cn1ccnc1)Oc1ccc(F)cc1` (centres unmarked) [(A), reference compound], the MIC came out at 32 µg/mL (≈ 110 µM).

As to `CC(C)(C)C(O)C(=Cn1ccnc1)Oc1ccc(-c2ccccc2)cc1` (centres unmarked) [(B), reference compound], the MIC is 32 µg/mL (≈ 91.8 µM).

As for `CC(C)(C)C(O)C(=Cn1ccnc1)Oc1ccc(Cl)cc1Cl` (centres unmarked) [(C), reference compound], the MIC came to 16 µg/mL (≈ 46.9 µM).

With `CC(C)(C)C(O)C(=Cn1cncn1)Oc1ccc(Cl)cc1Cl` (centres unmarked) [(D), reference compound], the MIC was 32 µg/mL (≈ 93.5 µM).

As to `CC1(C)CCOC1=C(Oc1ccc(Cl)cc1)n1ccnc1` [Example 1, (4-chlorophenoxy)-(imidazol-1-yl)-3,3-dimethyltetrahydrofuran-2-ylidene-methane], the MIC turned out to be 8 µg/mL (≈ 26.2 µM).

As to `CC1(C)CCOC1=C(Oc1ccc(F)cc1)n1ccnc1` [Example 2], the MIC was under 1 µg/mL.

With `CC1(C)CCOC1=C(Oc1ccc(Cl)cc1Cl)n1ccnc1` [Example 3], the MIC is under 1 µg/mL.

Consider `CC1(C)CCOC1=C(Oc1ccc(-c2ccccc2)cc1)n1ccnc1` [Example 7], for which the MIC was under 1 µg/mL.

Regarding `CC1(C)CCOC1=C(Oc1ccc(Cl)cc1)n1cncn1` [Example 11], the MIC came out at 4 µg/mL (≈ 13.1 µM).

Another assay deals with Aspergillus fumig. Described as above. In kind it is cell-based, Aspergillus fumigatus. The settings on record: 5×10^4 germs/ml, Sabouraud's milieu d'épreuve, 20° C., 96 hours, read-out: MIC values in γ/ml of nutrient medium, Aspergillus fumig. As for the experimental part: as §1
For `CC(C)(C)C(O)C(=Cn1ccnc1)Oc1ccc(F)cc1` (centres unmarked) [(A), reference compound], the MIC is over 64 µg/mL.

Turning to `CC(C)(C)C(O)C(=Cn1ccnc1)Oc1ccc(-c2ccccc2)cc1` (centres unmarked) [(B), reference compound], the MIC is over 64 µg/mL.

On to `CC(C)(C)C(O)C(=Cn1ccnc1)Oc1ccc(Cl)cc1Cl` (centres unmarked) [(C), reference compound], for which the MIC is over 64 µg/mL.

For `CC(C)(C)C(O)C(=Cn1cncn1)Oc1ccc(Cl)cc1Cl` (centres unmarked) [(D), reference compound], the MIC is 64 µg/mL (≈ 187 µM).

For `CC1(C)CCOC1=C(Oc1ccc(Cl)cc1)n1ccnc1` [Example 1, (4-chlorophenoxy)-(imidazol-1-yl)-3,3-dimethyltetrahydrofuran-2-ylidene-methane], the MIC is under 1 µg/mL.

For the molecule `CC1(C)CCOC1=C(Oc1ccc(F)cc1)n1ccnc1` [Example 2], the MIC turned out to be 2 µg/mL (≈ 6.94 µM).

For the molecule `CC1(C)CCOC1=C(Oc1ccc(Cl)cc1Cl)n1ccnc1` [Example 3], the MIC is under 1 µg/mL.

Regarding `CC1(C)CCOC1=C(Oc1ccc(-c2ccccc2)cc1)n1ccnc1` [Example 7], the MIC is under 1 µg/mL.

`CC1(C)CCOC1=C(Oc1ccc(Cl)cc1)n1cncn1` [Example 11]: the MIC is over 64 µg/mL.

A further assay concerns Trichophyton mentagr. Described as above. Format: cell-based, Trichophyton mentagrophytes. The note with it: 5×10^4 germs/ml, Sabouraud's milieu d'épreuve, 20° C., 96 hours, read-out: MIC values in γ/ml of nutrient medium, Trichophyton mentagr. As for the experimental part: as §1
Regarding `CC(C)(C)C(O)C(=Cn1ccnc1)Oc1ccc(F)cc1` (centres unmarked) [(A), reference compound], the MIC stood at 1 µg/mL (≈ 3.44 µM).

As for `CC(C)(C)C(O)C(=Cn1ccnc1)Oc1ccc(-c2ccccc2)cc1` (centres unmarked) [(B), reference compound], the MIC is under 1 µg/mL.

Consider `CC(C)(C)C(O)C(=Cn1ccnc1)Oc1ccc(Cl)cc1Cl` (centres unmarked) [(C), reference compound], for which the MIC was under 1 µg/mL.

Consider `CC(C)(C)C(O)C(=Cn1cncn1)Oc1ccc(Cl)cc1Cl` (centres unmarked) [(D), reference compound], for which the MIC is under 1 µg/mL.

On to `CC1(C)CCOC1=C(Oc1ccc(Cl)cc1)n1ccnc1` [Example 1, (4-chlorophenoxy)-(imidazol-1-yl)-3,3-dimethyltetrahydrofuran-2-ylidene-methane], for which the MIC was under 1 µg/mL.

Regarding `CC1(C)CCOC1=C(Oc1ccc(F)cc1)n1ccnc1` [Example 2], the MIC was under 1 µg/mL.

Consider `CC1(C)CCOC1=C(Oc1ccc(Cl)cc1Cl)n1ccnc1` [Example 3], for which the MIC was under 1 µg/mL.

In the case of `CC1(C)CCOC1=C(Oc1ccc(-c2ccccc2)cc1)n1ccnc1` [Example 7], the MIC was under 1 µg/mL.

With `CC1(C)CCOC1=C(Oc1ccc(Cl)cc1)n1cncn1` [Example 11], the MIC was under 1 µg/mL.

The next assay relates to dermatophytes and moulds, yeasts. As to the kind of experiment: Antimycotic in vitro activity, overall comparison with known compounds. The note with it: in vitro series dilution test. In kind it is cell-based. How it is done: Antimycotic in vitro activity
Description of the experiment:
The in vitro tests were carried out in a series dilution test with germ inocula of an average of 5×10^4 germs/ml of substrate. The nutrient medium was
(a) for dermatophytes and moulds:
Sabouraud's milieu d'/e/ preuve and
meat extract/glucose broth.
The incubation temperature was 20° C. and the duration of incubation was 24 to 96 hours, in the case of yeasts, and 96 hours in the case of dermatophytes and moulds.
With `CC1(C)CCOC1=C(Oc1ccc(Cl)cc1)n1ccnc1` [Example 1, (4-chlorophenoxy)-(imidazol-1-yl)-3,3-dimethyltetrahydrofuran-2-ylidene-methane], the “antimycotic action compared with compounds (A), (B), (C) and (D)” value was “better antimycotic action”.

Take `CC1(C)CCOC1=C(Oc1ccc(F)cc1)n1ccnc1` [Example 2]: the “antimycotic action compared with compounds (A), (B), (C) and (D)” value is “better antimycotic action”.

With `CC1(C)CCOC1=C(Oc1ccc(Cl)cc1Cl)n1ccnc1` [Example 3], the “antimycotic action compared with compounds (A), (B), (C) and (D)” value is reported as “better antimycotic action”.

Take `CC1(C)CCOC1=C(Oc1ccc(-c2ccccc2)cc1)n1ccnc1` [Example 7]: the “antimycotic action compared with compounds (A), (B), (C) and (D)” value was “better antimycotic action”.

On to `CC1(C)CCOC1=C(Oc1ccc(Cl)cc1)n1cncn1` [Example 11], for which the “antimycotic action compared with compounds (A), (B), (C) and (D)” value is on record as “better antimycotic action”.
